According to PMC10816640, “Discovery of Novel Diphenyl Acrylonitrile Derivatives That Promote Adult Rats’ Hippocampal Neurogenesis” (International Journal of Molecular Sciences, 2024):
“And” between values parts separate entries of the source, which are not always exact repeats. Equal values may be shown once. Marks after values point to notes of the source that are not given here.

Tests used:
[1] = test system: newborn cells in the subgranular zone; experiment: BrdU+ newborn cells, rats sacrificed 28 days after BrdU; format: in vivo, rat; settings: nine-week-old rats (n = 2), i.p. 4.0 mg/kg/day for 28 days, BrdU pulse, Figure 7A
Description: The study employed a rat model, wherein nine-week-old rats were administered intraperitoneally with the compound at a dose of 4.0 mg/kg/day for 28 days and then treated with a pulse of BrdU. Instead of sacrificing the rats 24 h after the BrdU injections, the rats were sacrificed after another 28 days. The brains were then isolated and cryosectioned. Eight randomly selected slices were subjected to immunohistochemical staining. This staining enabled the co-localization of the BrdU-incorporated cells with the NeuN marker, enabling the definition of the compounds that could promote the differentiation of newborn neural progenitor cells into mature functional neurons. The compounds were dissolved in reagent-grade soybean oil containing 10% ethanol to reach a drug concentration of 2.8 mg/mL. The rats in the experimental group received intraperitoneal injections of the compounds at a dose of 4.0 mg/kg/d for 28 consecutive days. As a control, the vehicle group was administered injections of reagent-grade soybean oil containing 10% ethanol. BrdU (Sigma-Aldrich, St. louis, MA, USA) solution, prepared in physiological saline at a concentration of 10 mg/mL, was administered to all rats on day 29. Each rat received two injections of BrdU at a dosage of 50 mg/kg, with a 2 h interval between injections. The rats were euthanized 24 h (or 28 days) after the final BrdU injection. Two or four rats per group were anesthetized using pentobarbital sodium (70 mg/kg) and subsequently perfused with physiological saline. The brain tissue was carefully dissected and fixed in 4% paraformaldehyde at 4 °C for one week. Next, the brain tissue underwent dehydration using a phosphate-buffered saline (PBS) solution containing 20% to 30% sucrose. Finally, the brain tissue was cryosectioned into slices with a thickness of 30 μm, and eight slices were randomly selected for further analysis. The assessment of new cell proliferation was conducted using BrdU staining. To eliminate endogenous peroxides, sections were exposed to 1% H2O2 for 30 min at RT. Cellular denaturation was achieved by treating the sections with 2 M HCl at 37 °C for 1 h, followed by rinsing in 0.1 M borate buffer (pH 8.5). Tissue sections were subjected to blocking in a solution consisting of 5% goat serum and 0.5% Triton X-100 in PBS at RT for 1–2 h. The specimens were then incubated overnight at 4 °C with a mouse primary antibody specific to BrdU (diluted at 1:500; Millipore, Billerica, MA, USA). Subsequently, the DAB kit was employed for 2 h of incubation at RT. The differentiation process of NPCs was visualized through the utilization of the NeuN/BrdU double staining technique. Tissue sections were subjected to an incubation period in a blocking buffer at RT for 1 to 2 h. The specimens were exposed to a rabbit anti-NeuN antibody (diluted at 1:500, Abcam, Cambridge, MA, UK) and a primary antibody, BrdU (diluted at 1:500), overnight at 4 °C. Afterwards, the sections were treated with anti-mouse 488 and anti-rabbit TRITC secondary antibodies for 2 h at RT. The data were presented as mean ± SEM (standard error of the mean) and visualized using GRAPHPAD PRISM 6 (Graphpad Software, La Jolla, CA, USA). Statistical analysis was conducted utilizing one-way analysis of variance (ANOVA) followed by a post hoc test. Subsequent to the statistical treatment, the observed discrepancies were determined to be statistically significant (p < 0.05).

[2] = Pharmacokinetic study, plasma; format: in vivo, SD rats; settings: rat blood/plasma, 4 mg/kg i.p.
Description: (§1) The SD rats (approximately 200 g) were randomly assigned to eight groups, with each group comprising three rats. All experimental procedures were carried out in accordance with the ethical guidelines outlined by the Ethics Committee of the Beijing Institute of Technology. The administration medium consisted of a combination of 5% dimethyl sulfoxide (DMSO) and 95% soybean oil. The drug was administered intraperitoneally at a dose of 4 mg/kg. Prior to the experiment, the experimental animals were subjected to a 12 h fasting period with free access to water. Following drug administration, blood samples were collected from the rat’s orbital vein at predetermined time points. The collected blood was then placed in sodium heparin anticoagulation tubes. The rats were euthanized, and their brain tissues were carefully extracted and loaded into 5 mL EP tubes. The collection time points for plasma and brain tissue samples were as follows: 0 min, 15 min, 30 min, 1 h, 2 h, 4 h, 8 h, and 24 h. Within 2 h after collection, the blood samples were centrifuged at 6000 rpm for 10 min at a temperature of 4 °C. The resulting samples were then stored in a −20 °C refrigerator.
(§2) Tissue samples were first weighed and homogenized to ensure consistent testing conditions. The determination of original compound concentrations in plasma and tissue homogenates was performed using LC-MS/MS. Specifically, 50 μL of plasma or tissue samples were mixed with 50 μL of propranolol and 100 μL of acetonitrile for protein precipitation. The resulting mixture was then centrifuged at 12,000 rpm for 5 min, and the supernatant was diluted and analyzed through LC-MS/MS. The liquid chromatography was conducted on a Thermo Scientific Q Exactive HF-X instrument (Thermo Fisher Scientific, Waltham, MA, USA), employing an ACQUITY UPLC BEH C18 Column with dimensions of 130 Å, 1.7 µm, 2.1 mm × 100 mm. Additionally, a pre-column equipped with an ACQUITY UPLC BEH C18 VanGuard Pre-Column (130 Å, 1.7 µm, 2.1 mm × 5 mm) was utilized. The liquid phase method employed gradient elution with mobile phases consisting of acetonitrile and a 0.1% formic acid aqueous solution. Mass spectrometry was conducted in positive ion mode. The quantification of drug concentration in plasma samples was performed using the internal standard method, and the obtained pharmacokinetic parameters were calculated using Phoenix WinNonlin 7.0 software.

[3] = Pharmacokinetic study, brain tissue distribution; format: in vivo, SD rats; settings: 4 mg/kg i.p.
Description: as §1
as §2, with “Additionally, a pre-column equipped with an ACQUITY UPLC BEH C18 VanGuard Pre-Column (130 Å, 1.7 µm, 2.1 mm × 5 mm) was utilized. The liquid phase method employed gradient elution with mobile phases consisting of acetonitrile and a 0.1% formic acid aqueous solution. Mass spectrometry was conducted in positive ion mode.” left out

Row | Compound | proliferative activity over the longer 28 day period (number of BrdU+ cells) [1] | AUC0–inf [2] [ng·h/mL] | CL [2] | MRT [2] [h] | T1/2 [2] [h] | Tmax [2] [h] | Vz [2] | AUC0–24h ([2]; n = 3) [ng·h/mL] | Cmax ([2]; n = 3) [ng/mL] | Cmax ([3]; rat brain tissue, n = 3) [ng/g] | AUC0–24h ([3]; rat brain tissue, n = 3, 4 mg/kg) | Ratio = Cmax of Brain/Cmax of Blood ([3]; rat)
1 | CC(C)C(=O)Nc1ccc(/C(C#N)=C/c2ccc3c(c2)OCO3)cc1 [29b, (Z)-N-(4-(2-(benzo[d][1, 3]dioxol-5-yl)-1-cyanovinyl)phenyl)isobutyramide] | could promote the proliferation of progenitors | – | – | – | – | – | – | – | – | – | – | –
2 | CC(C)C(=O)Nc1ccc(/C=C(\C#N)c2ccc3c(c2)OCO3)cc1 [32b, (Z)-N-(4-(2-(benzo[d][1, 3]dioxol-5-yl)-2-cyanovinyl)phenyl)isobutyramide] | – | 385 ± 82.3 | 10,770 ± 2616 mL/h/kg | 2.46 ± 0.14 | 2.23 | 1.5 | 32,829 ± 4581 mL/kg | 383 ± 84.4 | 132 ± 9 | 168 ± 47 | 608 ng·h/g and 608 ± 220 ng·h/g | 1.28 ^a
